Results taken from PubChem BioAssay (NCI).
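Tested at 5 concentrations; 48 h exposure; 96-well plates; endpoints linearly interpolated, else capped at highest concentration. Abbreviation: GI50, concentration required for 50% inhibition of growth. TGI marks complete inhibition of growth.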

Assays:
Test in all cases: inhibition of tumour cell growth, NCI panel, 48 h
A498 renal = system: A498 renal
M14 melanoma = system: M14 melanoma
HCT-15 colon = system: HCT-15 colon
TK-10 renal = system: TK-10 renal
LOX IMVI melanoma = system: LOX IMVI melanoma
UO-31 renal = system: UO-31 renal
HL-60(TB) leukemia = system: HL-60(TB) leukemia
UACC-62 melanoma = system: UACC-62 melanoma
HCT-116 colon = system: HCT-116 colon
T-47D breast = system: T-47D breast

SMILES	TGI (A498 renal) [µM]	TGI (M14 melanoma) [µM]	TGI (HCT-15 colon) [µM]	TGI (TK-10 renal) [µM]	TGI (LOX IMVI melanoma) [µM]	TGI (UO-31 renal) [µM]	TGI (HL-60(TB) leukemia) [µM]	TGI (UACC-62 melanoma) [µM]	TGI (HCT-116 colon) [µM]	GI50 (A498 renal) [µM]	GI50 (M14 melanoma) [µM]	GI50 (T-47D breast) [µM]	TGI (T-47D breast) [µM]	GI50 (HCT-15 colon) [µM]	GI50 (TK-10 renal) [µM]	GI50 (LOX IMVI melanoma) [µM]	GI50 (UO-31 renal) [µM]	GI50 (UACC-62 melanoma) [µM]	GI50 (HCT-116 colon) [µM]	GI50 (HL-60(TB) leukemia) [µM]
COc1cc2c(c3oc(-c4ccc5c(c4)OCO5)c(O)c(=O)c13)CCC(C)(C)O2	> 100	> 100	> 100	> 100	> 100	> 100	> 100	> 100	–	–	–	–	–	–	–	–	–	–	–	–
CC1(C)CCc2cc3c(cc2O1)OC(C)(C)C1c2c(ccc4c2CCC(C)(C)O4)OC31 (stereo unspecified)	–	> 100	> 100	–	> 100	> 100	> 100	> 100	> 100	–	–	–	–	–	–	–	–	–	–	–
NNC(=O)CC(=O)Nc1ccccc1F	> 100	> 100	> 100	–	> 100	> 100	> 100	> 100	> 100	–	–	–	–	–	–	–	–	–	–	–
Cc1cc(N(CCCNc2ccnc3cc(Cl)ccc23)Cc2cccs2)nc(Cl)n1	11.7	4.54	12.8	20.9	11.7	7.73	–	21	12.8	2.16	1.81	1.99	20.6	2.45	5.96	2.79	0.986	5.15	1.08	–
CCOC(=O)c1c(-c2[nH]c(C(=O)OCc3ccccc3)c(C)c2C(=O)OCC)[nH]c(C(=O)OCc2ccccc2)c1C	> 100	> 100	> 100	> 100	> 100	> 100	–	> 100	> 100	–	–	–	–	–	–	–	–	–	–	–
CC(C)C(/C=C/c1ccccc1)=N\NC(=O)N/N=C(/C=C/c1ccccc1)C(C)C	–	> 100	80.9	> 100	> 100	93	45.9	> 100	45	–	–	–	–	–	–	–	–	–	–	–
COc1cc(C2[C@H]3C(=O)N(c4ccc(Cc5ccc(N6C(=O)[C@@H]7ON(c8ccccc8)C(c8cc(OC)c(OC)c(OC)c8)[C@@H]7C6=O)cc5)cc4)C(=O)[C@H]3ON2c2ccccc2)cc(OC)c1OC (stereo partly specified)	> 100	48.6	> 100	> 100	> 100	> 100	> 100	> 100	> 100	–	–	–	–	–	–	–	–	–	–	–
COc1cc(C)c(C(=O)/C=C/c2cc(OC)c(O)c(OC)c2)cc1O	97.5	29.9	–	> 100	> 100	57.5	64.8	44.1	27	–	–	–	–	–	–	–	–	–	–	–
Cc1cn(C2C=CC(=O)C(C)O2)c(=O)[nH]c1=O (stereo unspecified)	> 100	29.7	–	28.5	26.6	27.7	38.1	29.1	24.6	–	–	–	–	–	–	–	–	–	–	–
COc1cc2ccc(CC#N)cc2cc1OC	> 100	–	–	> 100	> 100	> 100	> 100	–	–	–	–	–	–	–	–	–	–	–	–	–
COC(=O)C1CC2(c3ccc(C)cc3)C(c3ccc(C)cc3)=C(c3ccc(C)cc3)C1(c1ccc(C)cc1)S2=O (stereo unspecified)	50.5	> 100	> 100	> 100	> 100	> 100	–	> 100	> 100	4.88	> 100	60.4	> 100	> 100	> 100	> 100	> 100	> 100	73.2	–
CCN(CC)c1ccc(/C=C/C(=O)c2cccc(NS(C)(=O)=O)c2)cc1	> 100	> 100	> 100	> 100	> 100	> 100	> 100	–	> 100	5.39	4.1	4.29	> 100	3.44	7.53	3.13	> 100	–	3.99	20
COc1ccc2oc(-c3ccncc3)cc(=O)c2c1	> 100	> 100	> 100	–	> 100	> 100	> 100	> 100	> 100	–	–	–	–	–	–	–	–	–	–	–
CC(C)O/C=C1\C(=O)C2(SCCS2)[C@H]2CCCC[C@@H]12	75	> 100	> 100	> 100	–	> 100	53.4	69.4	> 100	–	–	–	–	–	–	–	–	–	–	–
CSC(=S)N(C)NC(=O)c1cccc(C(=O)NN(C)C(=S)SC)n1	> 100	> 100	> 100	–	> 100	–	48.3	55.8	> 100	–	–	–	–	–	–	–	–	–	–	–
CNC1=C(C)C(=O)C(C)=C(C(C)(C)CC(=O)n2cc(F)c(=O)[nH]c2=O)C1=O	> 100	> 100	> 100	> 100	> 100	> 100	> 100	> 100	> 100	–	–	–	–	–	–	–	–	–	–	–
CN(C)c1nc(N(C)C)nc(N(C)CN(C)c2nc(N(C)C)nc(N(C)C)n2)n1	> 100	> 100	> 100	> 100	> 100	> 100	> 100	> 100	> 100	–	–	–	–	–	–	–	–	–	–	–
COc1cc(NCC(C#N)C#N)ccc1N=Nc1ccc([N+](=O)[O-])cc1	> 100	> 100	> 100	> 100	> 100	> 100	–	> 100	> 100	–	–	–	–	–	–	–	–	–	–	–
CC1SC2=NC3=C(c4ccccc4C3=O)C(c3ccc(Br)cc3)N2C1=O (stereo unspecified)	> 100	> 100	> 100	> 100	–	> 100	62.8	> 100	–	–	–	–	–	–	–	–	–	–	–	–
O=C1c2cnccc2Cc2cccc3c2N1c1ccccc1S3	69.8	58.8	> 100	–	57.5	–	67.1	41.7	33.8	–	–	–	–	–	–	–	–	–	–	–
O=C1C2Cc3ccccc3CN2C(=O)N1CN1CCN(CN2C(=O)C3Cc4ccccc4CN3C2=O)CC1 (stereo unspecified)	> 100	–	> 100	> 100	> 100	> 100	> 100	> 100	–	–	–	–	–	–	–	–	–	–	–	–
COC(=O)c1[nH]nc(-c2ccccc2)c1N1CCCCC1	57.2	> 100	> 100	68.2	> 100	> 100	> 100	49.2	–	17.4	57	27	72.4	36.2	32.5	42	65.4	17.3	–	> 100
